Reference: publication PMC4838890, “Dynamic and flexible H3K9me3 bridging via HP1β dimerization establishes a plastic state of condensed chromatin” (Nature Communications, 2016)

Experiments:
[1] = molecular target: CSD-CSD interaction of hHP1β monomers; assay: ITC dilution, CSD-CSD dimerization; format: binding, human; conditions: ITC dilution experiments, not shown
[2] = test system: H3KC9me3 oligonucleosomes; assay: Chromatin coprecipitation, H3KC9me3 oligonucleosomes; format: binding, Xenopus laevis
Method: 6.7 nM oligonucleosomes were incubated with 1 μM recombinant protein in 100 μl binding buffer (10 mM triethanolamine (pH 7.5), 150 mM NaCl, 5 mM MgCl2, 0.1 mM EDTA, 0.1% (v/v) Triton-X100) for 1 h on ice. Precipitated chromatin complexes were recovered by centrifugation at 16,100g for 30 min at 4°C. Pellets were washed once with 0.5 ml binding buffer and centrifuged for 15 min at 4 °C. Precipitated material was resuspended in 10 μl 1 × SDS loading buffer and boiled for 5 min before running on SDS–PAGE.
Supplementary Table 1: Summary of conditions used in the different experiments of this study.
experiment result modification template Temp. [NaCl] [MgCl2]
chromatin Fig. 1e,f; Fig. S1f-h; H3K9me3 oligo- 4 150 5

[3] = test system: H3K9me0 oligonucleosomes; assay: Chromatin sedimentation (clustering), H3K9me0 oligonucleosomes; format: biochemical, Xenopus laevis; conditions: 150 mM NaCl, EtBr fluorescence, n=3
Method: Figure 3 hHP1β clusters oligonuclesomal arrays in dependence of H3K9me3. (a) Oligonucleosomes (2.5 nM) were incubated with increasing concentrations of hHP1β WT or I161A at 150 mM NaCl. DNA remaining in the supernatant after centrifugation was incubated with EtBr and measured by fluorescence reading. Data were normalized to amounts in absence of added protein. Averages of three independent experiments are plotted; error bars represent s.d.; n=3. (b) Analysis of the hydrodynamic radius of oligonucleosomes (10 nM; DNA labelled with ATTO 610) in the presence of increasing concentrations of hHP1β WT or I161A by FCS at 150 mM NaCl. For details on experimental setup see Supplementary Fig. 3. Error bars represent s.d.; n=3. (c) Oligonucleosomes were reconstituted after mixing H3K9me0 and H3K9me3 octamers at different ratio. Chromatin precipitation analysis at 150 mM NaCl was carried out with hHP1β WT at saturating concentration. Data are presented as in a. (d) Precipitation behaviour of oligonucleosomes (2.5 nM) was analysed at different concentrations of NaCl with hHP1β WT at saturating concentration. […] Precipitated material was analysed by western blotting. […] Complexes were fixed with 0.05% (v/v) glutaraldehyde, spotted on mica surfaces and analysed by scanning force microscopy. […] (h) Quantification of results representatively shown in g according to the classification on the top: A, extended; B, partially condensed; C, fully condensed; D; aggregates; n>50 for each condition.
For saturating conditions, 2.7 nM oligonucleosomes were incubated with 5 μM hHP1β proteins in 100 μl sedimentation buffer (10 mM triethanolamine (pH 7.5), 150 mM NaCl, 0.1 mM EDTA) for 1 h on ice. […] For quantification of chromatin DNA, the input and output samples were incubated with 40 μl 0.5 μg ml^−1 ethidium bromide and fluorescence was measured on a Plate CHAMELEON II fluorescence plate reader (Hidex, Turku, Finland) using a 360 nm (±5 nm) excitation filter and a 612 nm (±5 nm) emission filter. For each sample the ratio of DNA concentrations after and before centrifugation (output/input) was calculated. […]

Substance: hHP1β WT: recombinant human heterochromatin protein 1β (GenBank NM_001127228), 185 aa
- CSD-CSD dimerization strength [1]: nanomolar regime
- recovery with H3KC9me3 oligonucleosomes ([2]; 6.7 nM oligonucleosomes, 1 μM protein, 150 mM NaCl, 5 mM MgCl2): bound specifically to H3K9me3 oligonucleosomes irrespective of the saturation level of the chromatin template
- molecules bound per nucleosome ([2]; saturating protein concentrations): two
- chromatin clustering/aggregation, H3K9me0 [3]: efficiently aggregated H3K9me3 but not H3K9me0 oligonucleosomes
- chromatin clustering/aggregation, H3K9me0 ([3]; listed as hHP1β): No clustering of H3K9me0 chromatin

Substance: hHP1β I161A: CSD point mutant of hHP1β incapable of dimerization
- chromatin clustering/aggregation, H3K9me0 [3]: neither the I161A mutant, nor the isolated CD or CSD had any effect on modified or unmodified chromatin
